Data published in US7875618B2, “Substituted imidazo[1,5-a]quinoxalines useful as inhibitors of phosphodiesterase 10 for the treatment of neurological and other disorders” (Wyeth, priority 2007, dated 2011).

Legend:
human recombinant PDE10A = molecular target: T1, human recombinant PDE10A (Homo sapiens, UniProt Q9Y233); assay: Inhibition of human recombinant PDE10A ([3H]-cAMP SPA, Method B); format: biochemical; conditions: read-out: PDE10 inhibition IC50 [nM] PDE10A human
T1 construct: made in house; host or cells: SF21 insect cells (baculovirus)
T1 sequence (Q9Y233 1-779 isoform Q9Y233-1): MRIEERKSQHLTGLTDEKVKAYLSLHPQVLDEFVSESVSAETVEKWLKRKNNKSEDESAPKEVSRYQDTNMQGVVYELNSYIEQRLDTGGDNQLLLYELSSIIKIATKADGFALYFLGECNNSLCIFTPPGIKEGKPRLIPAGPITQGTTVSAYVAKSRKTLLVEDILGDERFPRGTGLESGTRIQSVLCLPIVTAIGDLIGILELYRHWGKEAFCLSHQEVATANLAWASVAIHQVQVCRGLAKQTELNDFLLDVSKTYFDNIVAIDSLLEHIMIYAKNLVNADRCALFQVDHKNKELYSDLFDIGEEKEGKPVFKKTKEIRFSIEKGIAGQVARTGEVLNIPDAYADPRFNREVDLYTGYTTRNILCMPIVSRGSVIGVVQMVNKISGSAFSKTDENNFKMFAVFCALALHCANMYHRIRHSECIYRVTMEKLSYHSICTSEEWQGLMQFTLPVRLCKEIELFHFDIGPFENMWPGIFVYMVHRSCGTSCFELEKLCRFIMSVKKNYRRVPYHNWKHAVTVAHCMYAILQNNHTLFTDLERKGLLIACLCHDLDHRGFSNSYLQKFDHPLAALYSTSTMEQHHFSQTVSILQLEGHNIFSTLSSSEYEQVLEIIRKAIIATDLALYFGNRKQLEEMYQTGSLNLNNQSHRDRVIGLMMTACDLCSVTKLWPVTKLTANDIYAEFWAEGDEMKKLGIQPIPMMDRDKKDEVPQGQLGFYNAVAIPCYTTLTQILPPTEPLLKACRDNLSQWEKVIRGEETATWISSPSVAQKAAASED

PDE10 from pig striatum = PDE10 from pig striatum (Sus scrofa, UniProt A0A287B941); assay: Inhibition of PDE10 from pig striatum ([3H]-cAMP SPA, Methods A and B); format: biochemical; conditions: PDE10 pig
Protocol: Striatum from male Wistar rats (180-200 g), male hybrid pigs (150 kg) and male guinea pigs (CRL (HA), 500 g) respectively were collected and frozen at −70° C. At the day of preparation 0.5 g striatum was homogenised in 10 ml 50 mM Tris/Mg-buffer at 4° C. and centrifuged for one hour at 100000 g. The supernatant is called the cytosolic fraction and was removed and stored on ice. The pellet was resuspended in the same buffer, but containing 1% Triton and incubated for 45 min at 4° C. Both fractions were independently applied onto a 5 ml Hi Trap™ QHP column at the Äkta-FPLC. After washing the columns the bound PDE protein was eluted with an increasing sodium chloride gradient (0 mM-500 mM sodium chloride) in 50 mM Tris/Mg-buffer at 4° C. for the cytosolic fraction and in the presence of 1% Triton for the membrane fraction. […] The fractions with PDE10-activity were pooled and frozen in aliquots until use at −20° C. PDE10 activity was determined in a one step procedure in microtiter plates. […] Nonspecific activity was tested without the enzyme. The reaction was initiated by addition of the substrate solution and was carried out at 37° C. for 30 minutes. Enzymatic activity was stopped by addition of 25 μl YSi-SPA-beads (Amersham-Pharmacia). One hour later the mixture was measured in a liquid scintillation counter for microtiter plates (Microbeta Trilux). To pipette the incubation mixture a robot Biomek (Fa. Beckman) is used. […] For determination of IC50 values the Hill-plot, 2-parameter-model, was used. […] Striatum from male hybrid pigs (150 kg) were collected and frozen at −70° C. At the day of preparation 0.5 g striatum was homogenised in 10 ml 50 mM Tris/Mg-buffer at 4° C. and centrifuged for one hour at 100000 g. The supernatant was removed and the pellet was resuspended in the same buffer, but containing 1% Triton and incubated for 45 min at 4° C. The membrane fraction was applied onto a 5 ml Hi Trap™ QHP column at the Äkta-FPLC. After washing the column the bound PDE protein was eluted with an increasing sodium chloride gradient (0 mM-500 mM sodium chloride) in 50 mM Tris/Mg-buffer at 4° C. in the presence of 1% Triton. […] The fractions with PDE10-activity were pooled and frozen in aliquots until use at −20° C. PDE10 activity was determined in a one step procedure in microtiterplates. […] Nonspecific activity was tested without the enzyme. The reaction was initiated by addition of the substrate solution and was carried out at 37° C. for 30 minutes. Enzymatic activity was stopped by addition of 25 μl YSi-SPA-beads (Amersham-Pharmacia). One hour later the mixture was measured in a liquid scintillation counter for microtiterplates (Microbeta Trilux). To pipette the incubation mixture a robot Biomek (Fa. Beckman) is used. […] For determination of IC50 values the Hill-plot, 2-parameter-model, was used.

Compound | melting point | IC50 (human recombinant PDE10A) | IC50 (PDE10 from pig striatum)
CCCc1nc(C)c2c(N)nc3ccc(OCC4CC4)cc3n12 [Example 39, 8-Cyclopropylmethoxy-3-methyl-1-propyl-imidazo[1,5-a]quinoxalin-4-ylamine] | 163 to 167 °C | 10 to 100 nM | 
Cc1nc(C2CCCCC2)n2c1c(N)nc1ccc(OCC3CC3)cc12 [Example 40, 1-Cyclohexyl-8-cyclopropylmethoxy-3-methyl-imidazo[1,5-a]quinoxalin-4-ylamine] | 241 to 242 °C | ≥ 100 nM | 10 to 100 nM
CCc1nc(C)c2c(Cl)nc3ccccc3n12 [Intermediate B3] | 125 to 128 °C |  | 10 to 100 nM
CCc1nc(C)c2c(N)nc3ccccc3n12 [Example 3, 1-Ethyl-3-methyl-imidazo(1,5-a)quinoxalin-4-ylamine] | 192 to 195 °C |  | ≥ 100 nM
CCc1nc(C)c2c(Cl)nc3ccc(F)cc3n12 [Intermediate B5] | 157 to 160 °C |  | 10 to 100 nM
CCCc1nc(C)c2c(C)nc3ccc(OCC4CC4)cc3n12 [Example 42, 8-Cyclopropylmethoxy-3,4-dimethyl-1-propyl-imidazo[1,5-a]quinoxaline] | 110 to 112 °C | 10 to 100 nM | 10 to 100 nM
CCCc1nc(C)c2c(N)nc3ccc(OC)cc3n12 [Example 7, 8-Methoxy-3-methyl-1-propyl-imidazo(1,5-a)quinoxalin-4-ylamine] | 201 to 203 °C | 10 to 100 nM | 
CCCc1nc(C)c2c(C)nc3cc(OC)ccc3n12 [Example 48, 7-Methoxy-3,4-dimethyl-1-propyl-imidazo[1,5-a]quinoxaline] | 111 to 117 °C | 10 to 100 nM | 
COc1ccc2nc(N)c3c(C)nc(C4CCCCC4)n3c2c1 [Example 38, 1-Cyclohexyl-8-methoxy-3-methyl-imidazo[1,5-a]quinoxalin-4-ylamine] | 211 to 212 °C | 10 to 100 nM | 
COc1ccc2c(c1)nc(C)c1c(C)nc(-c3ccccc3Cl)n12 [Example 47, 1-(2-Chloro-phenyl)-7-methoxy-3,4-dimethyl-imidazo[1,5-a]quinoxaline] | 186 to 188.5 °C | 10 to 100 nM | ≤ 10 nM
CCCc1nc(C)c2c(Cl)nc3ccc(F)cc3n12 [Intermediate B6, 4-Chloro-8-fluoro-3-methyl-1-propyl-imidazo(1,5-a)quinoxaline] | 133 to 135 °C |  | 10 to 100 nM
COc1cc(OC)c2nc(C)c3c(C)nc(C4CCCCC4)n3c2c1 [Example 51, 1-Cyclohexyl-6,8-dimethoxy-3,4-dimethyl-imidazo[1,5-a]quinoxaline] | 219 to 222 °C | ≤ 10 nM | ≤ 10 nM
Cc1nc(C2CCCCC2)n2c1c(C)nc1ccc(OCC3CC3)cc12 [Example 44, 1-Cyclohexyl-8-cyclopropylmethoxy-3,4-dimethyl-imidazo[1,5-a]quinoxaline] | 154 to 157 °C | ≥ 100 nM | 10 to 100 nM
CCc1nc(C)c2c(C)nc3ccccc3n12 [Example 11, 3,4-Dimethyl-1-ethyl-imidazo(1,5-a)quinoxaline] | 123 to 125 °C |  | ≥ 100 nM
CCc1nc(C)c2c(C)nc3ccc(N4CCCCC4)cc3n12 [Example 17, 3,4-Dimethyl-1-ethyl-8-(piperidin-1-yl)-imidazo(1,5-a)quinoxaline] | 132 to 134 °C |  | 10 to 100 nM
CCc1nc(C)c2c(C)nc3ccc(F)cc3n12 [Example 12, 3,4-Dimethyl-1-ethyl-8-fluoro-imidazo(1,5-a)quinoxaline] | 139 to 142 °C |  | ≥ 100 nM

More lines, now with the values ahead:

melting point | IC50 (human recombinant PDE10A) | IC50 (PDE10 from pig striatum) | Compound
238 to 239 °C |  | ≥ 100 nM | CCc1nc(C)c2c(N)nc3ccc(F)cc3n12 [Example 5, 1-Ethyl-8-fluoro-3-methyl-imidazo(1,5-a)quinoxalin-4-ylamine]
99 to 101 °C |  | 10 to 100 nM | CCCc1nc(C)c2c(Cl)nc3ccccc3n12 [Intermediate B4, 4-Chloro-3-methyl-1-propyl-imidazo(1,5-a)quinoxaline]
134 to 136 °C | ≤ 10 nM | ≤ 10 nM | CCCc1nc(C)c2c(C)nc3cc(OCc4ccc5ccccc5n4)ccc3n12 [Example 49, 3,4-Dimethyl-1-propyl-7-(quinolin-2-ylmethoxy)-imidazo(1,5-a)quinoxaline]
165 to 169 °C | 10 to 100 nM |  | COc1ccc2nc(C)c3c(C)nc(C4CCCCC4)n3c2c1 [Example 43, 1-Cyclohexyl-8-methoxy-3,4-dimethyl-imidazo[1,5-a]quinoxaline]
195 to 200 °C |  | 10 to 100 nM | Cc1nc(C2CCCCC2)n2c1c(C)nc1ccc(F)cc12 [Example 14, 1-Cyclohexyl-3,4-dimethyl-8-fluoro-imidazo(1,5-a)quinoxaline]
105 to 108 °C |  | 10 to 100 nM | CCCc1nc(C)c2c(Cl)nc3ccc(N4CCCCC4)cc3n12 [Intermediate B10]
244 to 248 °C |  | ≥ 100 nM | Cc1nc(C2CCCCC2)n2c1c(Cl)nc1ccc(Cl)cc12 [Intermediate B9, 4,8-Dichloro-1-cyclohexyl-3-methyl-imidazo(1,5-a)quinoxaline]
200 to 206 °C | ≥ 100 nM |  | CCCc1nc(C)c2c(C)nc3c(OCC(F)(F)F)cc(OCC(F)(F)F)cc3n12 [Example 46, 3,4-Dimethyl-1-propyl-6,8-bis-(2,2,2-trifluoro-ethoxy)-imidazo[1,5-a]quinoxaline]
240 to 243 °C |  | 10 to 100 nM | CCCc1nc(C)c2c(N)nc3ccc(F)cc3n12 [Example 6, 8-Fluoro-3-methyl-1-propyl-imidazo(1,5-a)quinoxalin-4-ylamine]
185 to 187 °C | ≤ 10 nM | ≤ 10 nM | CCCc1nc(C)c2c(C)nc3c(OC)cc(OC)cc3n12 [Example 45, 6,8-Dimethoxy-3,4-dimethyl-1-propyl-imidazo[1,5-a]quinoxaline]
228 to 234 °C |  | 10 to 100 nM | Cc1nc(C2CCCCC2)n2c1c(C)nc1ccc(Cl)cc12 [Example 10, 8-Chloro-1-cyclohexyl-3,4-dimethyl-imidazo(1,5-a)quinoxaline]
205 to 210 °C |  | 10 to 100 nM | Cc1nc(C2CCCCC2)n2c1c(Cl)nc1ccc(F)cc12 [Intermediate B7, 4-Chloro-1-cyclohexyl-8-fluoro-3-methyl-imidazo(1,5-a)quinoxaline]
183 to 189 °C | ≤ 10 nM | ≤ 10 nM | COc1cc(OC)c2nc(C)c3c(C)nc(-c4ccccc4Cl)n3c2c1 [Example 53, 1-(2-Chloro-phenyl)-6,8-dimethoxy-3,4-dimethyl-imidazo[1,5-a]quinoxaline]
187 to 188 °C |  | ≥ 100 nM | CCCc1nc(C)c2c(N)nc3ccccc3n12 [Example 4, 3-Methyl-1-propyl-imidazo(1,5-a)quinoxalin-4-ylamine]
180 to 195 °C | ≤ 10 nM | ≤ 10 nM | Cc1nc(-c2ccccc2Cl)n2c1c(C)nc1c(OCC3CC3)cc(OCC3CC3)cc12 [Example 50, 1-(2-Chloro-phenyl)-6,8-bis-cyclopropylmethoxy-3,4-dimethyl-imidazo[1,5-a]quinoxaline]
140 to 144 °C |  | 10 to 100 nM | CCCc1nc(C)c2c(C)nc3ccc(F)cc3n12 [Example 13, 3,4-Dimethyl-8-fluoro-1-propyl-imidazo(1,5-a)quinoxaline]
168 to 169 °C | ≤ 10 nM | ≤ 10 nM | COc1cc(OC)c2nc(C)c3c(C)nc(-c4ccccc4C)n3c2c1 [Example 52, 6,8-Dimethoxy-3,4-dimethyl-1-o-tolyl-imidazo[1,5-a]quinoxaline]
